Where no end group is shown, it is not given here.
Assays:
HUT78 Sézary cells = experiment: Cell viability, MTT assay, HUT78 cells (with or without cell death inhibitors); assay type: cell-based; conditions: 20 h; for effect of pan-caspase inhibitor zVAD-fmk on peptide-induced cytotoxicity: increasing peptide concentrations, 50 μM zVAD-fmk, MTT, n = 3
Experimental: (§3) Cells survival was assessed with the CellTiter 96® Aqueous One Solution Cell Proliferation Assay kit (Promega, Madison, WI, USA).

[1] = system: non-malignant CD4+ T-cells, CD3+CD4+Vβ− cells; experiment: Ex vivo cell death in Sézary patients' PBMC, 7-AAD flow cytometry, non-malignant CD4+ T-cells; assay type: cell-based, human; conditions: increasing concentrations, 4 h, 37 °C, PBMC of three patients
Source text: (§1) SS diagnosis was established on recognized international clinical, histological, and biological criteria. Blood from SS patients with more than 90% of malignant CD4^+ T cells (identified by their TCR-Vβ rearrangement) was collected for the present study, which was approved by the institutional ethics committee (Saint Louis Hospital, Paris. Protocol no. 2011-oct.12735). Peripheral blood mononuclear cells (PBMC) were isolated from heparinized venous blood by density gradient centrifugation over lymphocytes separating medium (LSM; PAA Laboratories, Les Mureaux, France). The Sézary cell line HUT78 was amplified as previously described and cultured in RPMI 1640 supplemented with 2 mM L-glutamine, 1% penicillin-streptomycin (Invitrogen) and 10% heat-inactivated fetal calf serum (Life Technologies). All other cell lines were cultured in DMEM supplemented with 2 mM L-glutamine, 1% penicillin-streptomycin (Invitrogen) and 10% heat-inactivated fetal calf serum (Life Technologies).
(§2) PBMC exposed or not to RT33 or RT33 DR were processed for flow cytometry to assess cell death. Cells were labelled with a mix of anti-TCR-Vβ-FITC, -CD3-PE, and -CD4-PE-Cy7 mAbs (Beckman Coulter). Detection of apoptotic cells was performed using 7 AAD (BD Biosciences). Cells were analyzed on a CytoFlex cytometer (Beckman Coulter) and data treated with FlowJo software.

non T-cells, CD3− cells = experiment: Ex vivo cell death in Sézary patients' PBMC, 7-AAD flow cytometry, non T-cells; assay type: cell-based, human; conditions: increasing concentrations, 4 h, 37 °C, PBMC of three patients
Source text: as §1, §2

[2] = system: normal (HaCat, MRC-5) cells; experiment: Cell viability, MTT assay, normal cells; assay type: cell-based; conditions: increasing concentrations, 20 h, n = 3
Experimental: as §3

[3] = system: HUT78 Sézary cells xenograft; experiment: Sub-cutaneous xenograft mouse model for the Sézary syndrome; assay type: in vivo, NOD/SCID gamma (NSG) mice; conditions: 5 mg/kg daily i.p.
Source text: Animal experiments were approved by The University Board Ethics Committee for Experimental Animal Studies (#2303.01). Xenograft tumors were obtained by subcutaneous injection of 10^6 HUT78 cells in the right flank of 8-week-old female NOD-SCID-gamma (NSG) mice, bred and housed under pathogen-free conditions at our animal facility (IUH, Saint Louis Hospital, Paris, France). Treatment started after randomization when tumors were visible and consisted of daily intraperitoneal (i.p.) injection of normal saline or RT33 or RT33 DR in normal saline (n = 5 per group). Tumor volume was measured every other day and calculated as: long axis × short axis^2 × 0.5. Animals were euthanized after 21 days of treatment or when tumor size reached the ethical end point and visceral organs were excised for a gross pathological examination. Tumors were fixed in 4% neutral buffered formalin and embedded in paraffin. Sections (4 µm) were stained with hematoxylin-eosin (H&E) and subjected to microscopic analysis and image recording. Histological analysis was performed at the HistIM facility of Cochin Institute (Paris, France). Slides were imaged using a Lamina multilabel slide scanner (Perkin Elmer).

Row | Substance | cell viability, AAC-11 portion alone (HUT78 Sézary cells; 20 µM, MTT assay, n = 3 (Supplementary Figure S4)) | cell death / viability of non-malignant CD4+ T-cells (7-AAD+) [1] | cell death / viability of non T-cells (7-AAD+) (non T-cells, CD3− cells) | cell viability of normal cells [2] | effect of pan-caspase inhibitor zVAD-fmk on peptide-induced cytotoxicity (HUT78 Sézary cells) | clinical symptoms during the experimental period [3]
1 | AAC-11 specific portion: peptide comprising AAC-11 residues 377 to 399, without CPP (LQYFARGLQVYIRQLRLALQGKT; UniProt Q9BZZ5 377-399, looked up, fragment) [reference compound] | nor the AAC-11 specific portion alone (Supplementary Figure S4) decreased cell viability | – | – | – | – | –
2 | RSRSRDRRRK [hAP10] | – | did not induce cell death | did not induce cell death | – | – | –
3 | RSRSRDRRRKLQYFARGLQVYIRQLRLALQGKT [RT33] | – | neither peptide decreased cell viability | neither peptide decreased cell viability | sparing the normal cells tested | did not block | No obvious clinical symptoms
4 | RSRSRRRRRK [hAP10DR] | – | did not induce cell death | did not induce cell death | – | – | –
5 | RSRSRRRRRKLQYFARGLQVYIRQLRLALQGKT [RT33DR] | – | neither peptide decreased cell viability | neither peptide decreased cell viability | sparing the normal cells tested | did not block | No obvious clinical symptoms

Reference: article PMC7408964, “Efficient Therapeutic Delivery by a Novel Cell-Penetrating Peptide Derived from Acinus” (Cancers, 2020)
